According to patent US20050209278A1, “Piperidinyl- and piperazinyl-sulfonylmethyl hydroxamic acids and their use as protease inhibitors” (priority 2002, published 2005):
Structures can show the parent of a compound that is named as a salt. Where two headings read alike, the source gives them in different places.

Legend:
MMP-1 = target: T1, MMP-1 (Homo sapiens, UniProt P03956); assay: In vitro MMP inhibition, Ki determination (fluorogenic substrate II); type: biochemical; details: read-out: MMP-1 Ki
T1 construct: made in house; host or cells: MMP-1-transfected HT-1080 cells (spent media)
T1 sequence (P03956 100-469): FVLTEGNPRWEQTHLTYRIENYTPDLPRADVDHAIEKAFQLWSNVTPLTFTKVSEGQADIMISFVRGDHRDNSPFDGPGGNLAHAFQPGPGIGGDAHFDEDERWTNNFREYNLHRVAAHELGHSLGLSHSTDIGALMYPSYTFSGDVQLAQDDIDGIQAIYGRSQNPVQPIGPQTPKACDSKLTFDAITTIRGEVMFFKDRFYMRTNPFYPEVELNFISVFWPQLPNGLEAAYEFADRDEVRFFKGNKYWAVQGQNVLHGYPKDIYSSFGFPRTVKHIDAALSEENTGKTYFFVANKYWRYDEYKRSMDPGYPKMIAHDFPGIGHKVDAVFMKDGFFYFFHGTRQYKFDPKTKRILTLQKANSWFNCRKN
Protocol: (§1) Several hydroxamic acids and salts thereof were analyzed in in vitro assays to determine their ability to inhibit the MMP cleavage of peptide substrates. […] and IC50 constants were calculated from the assayed hydroxamic acid-MMP interactions.
(§2) Human recombinant MMP-1, MMP-2, MMP-9, MMP-13, and MMP-14 were used in this assay. All enzymes were prepared in Assignee's laboratories following usual laboratory procedures. Protocols for the preparation and use of these enzymes are available in the scientific literature. See, e.g., Enzyme Nomenclature (Academic Press, San Diego, Calif., 1992) (and the citations therein). See also, Freije et al., “Molecular cloning and expression of collagenase-3, a novel human matrix metalloproteinase produced by breast carcinomas,” J Biol. Chem., 269(24), 16766-16773 (1994).
The MMP-1 proenzyme was purified from the spent media of MMP-1-transfected HT-1080 cells provided by Dr. Harold Welgus of Washington University (St. Louis, Mo.). The protein was purified on a zinc chelating column.
(§3) All MMPs were activated using 4-aminophenylmercuric acetate (“APMA”, Sigma Chemical, St. Louis, Mo.) or trypsin. MMP-9 also was activated using human recombinant MMP-3 (purified in Assignee's laboratory following standard cloning and purification techniques).
(§4) Two fluorogenic, methoxycoumarin-containing polypeptide substrates were used in the MMP inhibition assays: [drawing 427] Here, “Dpa” is 3-(2,4-dinitrophenyl)-L-2,3-diaminopropionyl group, and “MCA” is 7-methoxycoumarin-4-yl acetyl. Substrate (I) was purchased from Baychem (Redwood City, Calif.), and substrate II was prepared Assignee's laboratory. Substrate I was used in the IC50 determination assays, while substrate II was used in the Ki determination assays. In the absence of MMP inhibitory activity, either substrate is cleaved at the Gly-Leu peptide bond. This cleavage separates the highly fluorogenic peptide from the 2,4-dinitrophenyl quencher, thus resulting in increase of fluorescent intensity.
(§5) The stock solutions of the assayed hydroxamic acids (or salts thereof) were prepared in 1% dimethyl sulfoxide (DMSO). These stock solutions were diluted in Buffer A (100 mM Tris-HCl, 100 mM NaCl, 10 mM CaCl2, 0.05% polyoxyethylene 23 lauryl ether, pH 7.5) to obtain solutions with different hydroxamic acid concentrations, i.e., assay solutions with different concentrations of the assayed MMP inhibitory compound. The experiment controls contained the same amount of Buffer A/DMSO as the assayed sample, but contained no hydroxamic acid (or salt thereof).
The assays from which the Ki determinations were made were performed as follows. The assayed hydroxamic acid samples were incubated in separate wells of untreated white polystyrene plates (Nunc Nalgene International, Rochester, N.Y.), and analyzed on a Tecan SpectraFlour Plus plate reader. The excitation wavelength was 330 nm, and the emission wavelength—420 nm. All samples (assayed hydroxamic acids and controls) were incubated in separate plate wells at room temperature for 1 hr in the presence of 4 μM of MMP substrate (II). In the absence of MMP inhibitory activity, substrate II was cleaved at the Gly-Leu bond resulting in an increase of relative fluorescence. Inhibition was observed as a reduced rate of this increase in relative fluorescence. The various hydroxamic acids were analyzed using a single low enzyme concentration with a single substrate concentration fixed at or below the Km. This protocol is a modification of method by Knight et al., FEBS Lett., 296(3), 263-266 (1992). Apparent inhibitory constants were determined by non-linear regression of reaction velocity as a function of inhibitor and enzyme concentration using Morrison's equation, as described by Kuzmic, Anal. Biochem. 286, 45-50 (2000). […] Since the substrate concentration was chosen to be at or below the Km, the apparent Ki's from this analysis were reported as Ki's without correction for the influence of substrate.

MMP-14 = target: T2, MMP-14 (Homo sapiens, UniProt P50281); assay: as above; type: biochemical; details: read-out: MMP-14 Ki
T2 construct: The catalytic domain enzyme was expressed in E. coli inclusion bodies, solubilized in urea; made in house
Protocol: as §1, §2
The MMP-14 full length cDNA was provided by Dr. Gregory Goldberg of Washington University (St. Louis, Mo.). The catalytic domain enzyme was expressed in E. coli inclusion bodies, solubilized in urea, purified on a preparative […] reverse phase HPLC column, and then refolded in the presence of zinc acetate and purified for use.
as §3, §4, §5
The assays from which the Ki determinations were made were performed as follows. The assayed hydroxamic acid samples were incubated in separate wells of untreated white polystyrene plates (Nunc Nalgene International, Rochester, N.Y.), and analyzed on a Tecan SpectraFlour Plus plate reader. The excitation wavelength was 330 nm, and the emission wavelength—420 nm. All samples (assayed hydroxamic acids and controls) were incubated in separate plate wells at room temperature for 1 hr in the presence of 4 μM of MMP substrate (II). In the absence of MMP inhibitory activity, substrate II was cleaved at the Gly-Leu bond resulting in an increase of relative fluorescence. Inhibition was observed as a reduced rate of this increase in relative fluorescence. The various hydroxamic acids were analyzed using a single low enzyme concentration with a single substrate concentration fixed at or below the Km. This protocol is a modification of method by Knight et al., FEBS Lett., 296(3), 263-266 (1992). Apparent inhibitory constants were determined by non-linear regression of reaction velocity as a function of inhibitor and enzyme concentration using Morrison's equation, as described by Kuzmic, Anal. Biochem. 286, 45-50 (2000).

[1] = human recombinant enzyme, 4 μM substrate II, room temperature, 1 hr
[2] = human recombinant enzyme (catalytic domain), 4 μM substrate II, room temperature, 1 hr

SMILES	Ki (MMP-1; [1]) [µM]	Ki (MMP-14; [2]) [µM]	Ki (MMP-1; value not in parenthesis) [µM]	Ki (MMP-14; value not in parenthesis) [µM]
O=C(NO)C1(S(=O)(=O)N2CCN(c3ccc(OCCCC(F)(F)F)cc3)CC2)CCOCC1 [Example 7, N-hydroxy-4-({4-[4-(4,4,4-trifluorobutoxy)phenyl]piperazin-1-yl}sulfonyl)tetrahydro-2H-pyran-4-carboxamide Hydrochloride]	> 10	4.33		
CCCCOc1ccc(N2CCN(S(=O)(=O)C3(C(=O)NO)CCN(c4ccc(C)cn4)CC3)CC2)cc1 [Example 125]			> 10	2.76
CCCCc1ccc(N2CCN(S(=O)(=O)C3(C(=O)NO)CCN(CCOC)CC3)CC2)cc1 [Example 5, 4-{[4-(4-butylphenyl)piperazin-1-yl]sulfonyl}-N-hydroxy-1-(2-methoxyethyl)piperidine-4-carboxamide Dihydrochloride]	> 10	1.55		
COCCN1CCC(C(=O)NO)(S(=O)(=O)N2CCN(c3ccc(OCC(F)(F)C(F)(F)F)cc3)CC2)CC1 [Example 144]			> 10	> 10
CCCCCc1ccc(N2CCN(S(=O)(=O)C3(C(=O)NO)CCN(CCOC)CC3)CC2)cc1F [Example 13, 4-{[4-(3-fluoro-4-pentylphenyl)piperazin-1-yl]sulfonyl}-N-hydroxy-1-(2-methoxyethyl)piperidine-4-carboxamide Dihydrochloride]	> 10	3.52		
CCCCCc1ccc(N2CCN(S(=O)(=O)C3(C(=O)NO)CCN(CCOC)CC3)CC2)cc1 [Example 6, N-Hydroxy-1-(2-methoxyethyl)-4-{[4-(4-pentylphenyl)piperazin-1-yl]sulfonyl}piperidine-4-carboxamide Dihydrochloride]	> 10	2.3		
CCCCc1ccc(N2CCN(S(=O)(=O)C3(C(=O)NO)CCN(c4ccc(C)cc4)CC3)CC2)cc1 [Example 146]			> 10	8.66
CCCCOc1ccc(N2CCN(S(=O)(=O)C3(C(=O)NO)CCN(c4cccnc4)CC3)CC2)cc1 [Example 154]			> 10	3.6
CCCCCc1ccc(N2CCN(S(=O)(=O)C3(C(=O)NO)CCN(c4ccc(C)cc4)CC3)CC2)cc1 [Example 147]			> 10	> 10
CCCCCc1cnc(N2CCN(S(=O)(=O)C3(C(=O)NO)CCOCC3)CC2)s1 [Example 56]			> 10	0.795
O=C(NO)C1(S(=O)(=O)N2CCC(c3ccc(CCC(F)(F)C(F)(F)F)cc3)CC2)CCOCC1 [Example 18, N-hydroxy-4-({4-[4-(3,3,4,4,4-pentafluorobutyl)phenyl]piperidin-1-yl}sulfonyl)tetrahydro-2H-pyran-4-carboxamide]	7.35	1.77		
C=CCCOC(=O)N1CCC(C(=O)NO)(S(=O)(=O)N2CCN(c3ccc(OCCCC)cc3)CC2)CC1 [Example 101]			> 10	4.33
CCCCOc1ccc(N2CCN(S(=O)(=O)C3(C(=O)NO)CCN(C(=O)OCCF)CC3)CC2)cc1 [Example 113]			> 10	2.33
CCCCOc1ccc(N2CCN(S(=O)(=O)C3(C(=O)NO)CCN(c4ccc(OC)nc4)CC3)CC2)cc1 [Example 142]			> 10	2.63
CCCCOc1ccc(N2CCN(S(=O)(=O)C3(C(=O)NO)CCN(CCOC)CC3)CC2)cc1F [Example 11, 4-[[4-(4-butoxy-3-fluorophenyl)-1-piperazinyl]sulfonyl]-N-hydroxy-1-(2-methoxyethyl)-4-piperidinecarboxamide, Dihydrochloride]	> 10	3.6		
CCCCCc1ccc(N2CCN(S(=O)(=O)C3(C(=O)NO)CCN(CC)CC3)CC2)cc1F [Example 22, 1-ethyl-4-{[4-(3-fluoro-4-pentylphenyl)piperazin-1-yl]sulfonyl}-N-hydroxypiperidine-4-carboxamine Hydrochloride]	> 10	9.32		
CCCCCCCCC1CCN(S(=O)(=O)C2(C(=O)NO)CCOCC2)CC1 [Example 26, 4-(4-octyl-piperidine-1-sulfonyl)-tetrahydro-pyran-4-carboxylic Acid Hydroxyamide]	2.97	0.657		
COCCN1CCC(C(=O)NO)(S(=O)(=O)N2CCN(c3ccc(OCC(F)(F)F)cc3)CC2)CC1 [Example 119]			> 10	4.38
Cc1ccc(N2CCN(S(=O)(=O)C3(C(=O)NO)CCOCC3)CC2)nc1 [Example 138]			1.38	0.0666
CCCCOc1ccc(N2CCN(S(=O)(=O)C3(C(=O)NO)CCN4CCCC4C3)CC2)cc1F (centres unmarked) [Example 126]			> 10	> 10
COc1ccc(-c2cnc(N3CCN(S(=O)(=O)C4(C(=O)NO)CCOCC4)CC3)nc2)cc1 [Example 8, N-hydroxy-4-({4-[5-(4-methoxyphenyl)pyrimidin-2-yl]piperazin-1-yl}sulfonyl)tetrahydro-2H-pyran-4-carboxamide Hydrochloride]	0.748	0.468		
O=C(NO)C1(S(=O)(=O)N2CCN(c3ccc(OCC(F)(F)F)cc3)CC2)CCOCC1 [Example 2, N-hydroxy-4-({4-[4-(2,2,2-trifluoroethoxy)phenyl]piperazin-1-yl}sulfonyl)tetrahydro-2H-pyran-4-carboxamide Hydrochloride]	> 10	1.94		
CCCCOc1ccc(N2CCN(S(=O)(=O)C3(C(=O)NO)CCN(C(=O)OCCOC)CC3)CC2)cc1 [Example 141]			8.9	1.14
CCCCOc1ccc(N2CCN(S(=O)(=O)C3(C(=O)NO)CCN(C(=O)c4cc5ccccc5s4)CC3)CC2)cc1 [Example 143]			> 10	> 10
COCCN1CCC(C(=O)NO)(S(=O)(=O)N2CCN(c3ccc(OCCCC(F)(F)F)cc3F)CC2)CC1 [Example 102]			> 10	7.13
